“Also recorded” adds a separate entry of the source. Read-outs that look alike come from different tables or passages of the source.
Assays:
[1] = system: mouse; set-up: species or system male CF-1 mice; conditions: in vivo
[2] = system: dogs; conditions: dog, in vivo
[3] = system: mouse; set-up: species or system male CF-1 mice; unit not given here; conditions: in vivo
[4] = system: mouse; conditions: in vivo; cited from earlier work
[5] = in vivo; cited from earlier work
[6] = system: dogs; conditions: dog, in vivo; cited from earlier work
[7] = system: mouse; conditions: in vivo
[8] = system: flurothyl induced convulsions; conditions: in vivo; cited from earlier work

## FC(F)OCC(F)(F)C(F)F [I, Difluoromethyl 2,2,3,3-tetrafluoropropyl ether]
[1]
  MOUSE […]., VOL. %: 1.0 VOL. %
  […] (type of convulsions): CLONIC CONVULSIONS

## FC(F)OCC(F)(F)C(F)(F)F [II, Difluoromethyl 2,2,3,3,3-pentafluoropropyl ether]
[1]
  MOUSE […]., VOL. %: 1.4 VOL. %
  […] (type of convulsions): CLONIC AND TONIC CONVULSIONS, CATALEPSY

## FC(F)OC(F)(F)C(F)C(F)(F)F (stereo not drawn) [III, Difluoromethyl 1,1,2,3,3,3-hexafluoropropyl ether]
[1]
  MOUSE […]., VOL. %: 2.0 VOL. %

## FC(F)OC(F)(C(F)F)C(F)F [IV, Difluoromethyl 1,1,2,3,3-pentafluoro-2-propyl ether]
[1]
  MOUSE […]., VOL. %: 1.2 VOL. %
  […] (type of convulsions): C[…] SEDATION
[2]
  convulsant effect in dogs: OPISTHOTONOID

## FC(F)OC(F)C(F)(F)C(F)(F)F (stereo not drawn) [IX]
[3]
  MOUSE AC50: 4.3

## FCOCC(F)(F)C(F)(F)F [V, Fluoromehtyl 2,2,3,3,3-pentafluoropropyl ether]
[1]
  MOUSE […]., VOL. %: 1.5 VOL. %
  […] (type of convulsions): METRAZOLE-LIKE CONVULSIONS

## FC(F)(F)COCC(F)(F)F [VII, flurothyl]
[1]
  […] (type of convulsions): CLONIC AND TONIC CONVULSIONS
  time to clonic and tonic convulsions: 30 s
[4]
  MOUSE […]., VOL. %: ≤ 0.25 VOL. %

## FC(F)OC(F)C(F)(F)C(F)F (stereo not drawn) [VIII]
[3]
  MOUSE AC50: 0.61
[2]
  convulsant effect in dogs: NON[…] DOGS

## FC(F)C(F)(F)COC(F)(F)F [VI]
[1]
  MOUSE […]., VOL. %: ≤ 0.5 VOL. %
[5]
  convulsions and death: VIOLENT C[…] DEATH
  time to violent convulsions and death: 30 to 120 s

## FCOC(F)(F)C(F)C(F)(F)F (stereo not drawn) [XIII]
[3]
  MOUSE AC50: 2.1

## FC(F)OC(C(F)F)C(F)F [XII]
[3]
  MOUSE AC50: 0.64

## FCOC(F)(C(F)F)C(F)(F)F (stereo not drawn) [XIV]
[3]
  MOUSE AC50: 2.5
[2]
  convulsant effect in dogs: NON[…] DOGS

## COCC(F)(F)C(F)(F)F [XIX, methyl 2,2,3,3,3-pentafluoropropyl ether]
[3]
  MOUSE AC50: 11
[6]
  effect in dogs: EXTENSOR RIGIDITY OF HIND LEGS; also recorded: TREMORS

## FC(F)OC(C(F)F)C(F)(F)F (stereo not drawn) [XI]
[3]
  MOUSE AC50: 0.84

## COC(F)(F)C(F)C(F)(F)F (stereo not drawn) [XVIII, methyl 1,1,2,3,3,3-hexafluoropropyl ether]
[3]
  MOUSE AC50: 3.9

## COC(F)(F)C(F)(F)C(F)(F)F [XVII]
[7]
  cause of death: DEATH DUE TO ANOXIA

## FCOC(C(F)F)C(F)(F)F (stereo not drawn) [XVI]
[3]
  MOUSE AC50: 0.84

## FCOC(C(F)(F)F)C(F)(F)F [XV]
[3]
  MOUSE AC50: 1.4
[2]
  convulsant effect in dogs: NON[…] DOGS

## COC(C(F)F)C(F)F [XXIII]
[3]
  MOUSE AC50: 1.4

## COC(C(F)F)C(F)(F)F (stereo not drawn) [XXII]
[3]
  MOUSE AC50: 1.5

## COC(C(F)(F)F)C(F)(F)F [XXI]
[3]
  MOUSE AC50: 2.2
[2]
  convulsant effect in dogs: NON[…] DOGS
[8]
  antagonism to flurothyl induced convulsions: ANTAGONIST

## COCC(F)(F)C(F)F [XX]
[3]
  MOUSE AC50: 2.5

## FC(F)OC(C(F)(F)F)C(F)(F)F [X]
[3]
  MOUSE AC50: 2.5
[2]
  convulsant effect in dogs: NON[…] DOGS

Reference: patent US3943256A (priority 1974, dated 1976)
